Where two headings read alike, the source gives them in different places.
What was measured:
Drosophila OR49b = target: T1, Drosophila OR49b (Drosophila melanogaster, UniProt Q9V6H2); assay: cell-based; details: for activation at 1 µM / activation at 10 µM / activation at 100 µM: HEK293; for Average response / OR49b response (VUAA1-normalized) at 1 μM / OR49b response (VUAA1-normalized) at 10 μM / OR49b response (VUAA1-normalized) at 100 μM: OR49b cell line; for Average response: mean of biological replicates
T1 construct: expressed in transfected cells
T1 sequence (Q9V6H2 1-375): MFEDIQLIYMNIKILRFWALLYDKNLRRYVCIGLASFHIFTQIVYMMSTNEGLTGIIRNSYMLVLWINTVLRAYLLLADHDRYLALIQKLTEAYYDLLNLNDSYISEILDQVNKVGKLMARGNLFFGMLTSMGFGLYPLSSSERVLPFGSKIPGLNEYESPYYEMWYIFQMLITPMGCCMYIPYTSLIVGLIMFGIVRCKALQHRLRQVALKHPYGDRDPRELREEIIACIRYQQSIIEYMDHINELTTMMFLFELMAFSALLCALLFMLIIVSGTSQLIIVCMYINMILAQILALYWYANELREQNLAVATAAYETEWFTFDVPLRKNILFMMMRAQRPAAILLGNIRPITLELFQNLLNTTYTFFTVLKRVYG
T1 sequence (Q9VNB5 1-486 partner): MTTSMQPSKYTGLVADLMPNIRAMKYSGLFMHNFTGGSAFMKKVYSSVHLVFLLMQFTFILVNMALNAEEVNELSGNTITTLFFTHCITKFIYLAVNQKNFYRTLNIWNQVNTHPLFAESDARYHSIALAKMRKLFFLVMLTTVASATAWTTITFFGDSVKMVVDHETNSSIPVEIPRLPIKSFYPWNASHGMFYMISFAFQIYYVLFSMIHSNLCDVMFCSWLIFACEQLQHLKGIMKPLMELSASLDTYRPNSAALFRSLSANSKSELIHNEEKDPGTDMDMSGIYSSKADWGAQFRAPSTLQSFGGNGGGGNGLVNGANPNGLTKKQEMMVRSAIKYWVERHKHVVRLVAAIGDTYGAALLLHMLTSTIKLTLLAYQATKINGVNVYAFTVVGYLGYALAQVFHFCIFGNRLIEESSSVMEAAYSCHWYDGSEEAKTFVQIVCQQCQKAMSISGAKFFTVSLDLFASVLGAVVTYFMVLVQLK
Protocol: (§1) These VUAA1 normalized ∆F values were used to compare the different receptors and ligands.
(§2) The concentration-dependent effect of the reference ligands on their cognate cell lines was examined in more detail. Twelve different ligand concentrations were measured on each cell line in an overall 0.01 μM to 100 μM concentration range with 5 repetitions with three technical replicates each time.
(§3) Twelve thousand to 18,000 cells were plated into each well of a black wall, transparent bottom 384-well microplate (Greiner) 48 h or 72 h before the measurements and were simultaneously treated with 1 μg/mL doxycycline. […] The plate has 24 columns, thus we could record responses in up to eight different cell lines in each plate. On the day of the experiment, the growth medium was replaced with 20 µL assay buffer/well (140 mM NaCl, 5 mM KCl, 2 mM CaCl2, 1 mM MgCl2, 5 mM HEPES-Na, 20 mM glucose, pH 7.3, 340 mOsm). […] Baseline fluorescence (F0) was recorded for 5 s, after which 7 µL VOC buffer (140 mM NaCl, 5 mM KCl, 2 mM CaCl2, 1 mM MgCl2, 5 mM HEPES-Na, 31 mM glucose, 0.1% DMSO, pH 7.3, 340 mOsm) was injected into each well in one row and the fluorescence response was recorded for an additional 30 s, at a rate of one read/sec. VOC solutions (VOC buffer with 4× concentration of the final measured VOC concentration, 9 µL/well was injected) were measured on the same wells in a second round with the same protocol. Each individual concentration of a specific VOC sample was recorded in three wells for the same cell line on the same microplate. The raw data were exported in xls file format, F0 and FMAX values, and the fluorescence intensity changes (∆F) were calculated in Excel (Microsoft) (Supplementary file Data summary.xlsx) using the following equation: ΔF=FMAX-F0/F0 (see also Fig. 1C). On each plate, we recorded the response of each cell line to 50 µM VUAA1. The average of these ∆F values of each cell line were used to calculate the VUAA1-normalized values for the rest of the plate, by dividing VOC response ∆F values by the average VUAA1 response ∆F value of the corresponding OR cell line. Each VOC-OR combination was measured three times as technical replicates. […] The average of these replicates were used as one ∆F and VUAA1-normalized ∆F in the following analysis.
(§4) In the next rows we tested the reference VOCs (or other VOCs known to activate the corresponding cell lines), in order to test if all cell lines are responsive. The remaining rows were used to test VOCs with unknown effect.
(§5) The recorded FMAX, F0, ∆F, VUAA1-normalized ∆F values, as well as the OR name, the name of the tested sample, and the final concentration for each well were copied into supplementary file Data summary.xlsx, that was used to summarize all the plates recorded. Here, the averages of the measurements were calculated for each receptor-VOC-concentration combination.

Drosophila OR71a = target: T2, Drosophila OR71a (Drosophila melanogaster, UniProt Q9VUK5); assay: Calcium ion fluorescence (GCaMP6) assay, OR71a stable HEK293 cell line; assay type: cell-based; details: for activation at 1 µM / activation at 10 µM / activation at 100 µM: HEK293, read-out: OR71a response (VUAA1-normalized response); for Average response / OR71a response (VUAA1-normalized) at 1 μM / OR71a response (VUAA1-normalized) at 10 μM / OR71a response (VUAA1-normalized) at 100 μM: OR71a cell line; for Average response: VUAA1-normalized response, mean of biological replicates; for OR71a Average response (VUAA1-normalized): 50 μM VUAA1 = 1
T2 construct: expressed in transfected cells
T2 sequence (Q9VUK5 1-378): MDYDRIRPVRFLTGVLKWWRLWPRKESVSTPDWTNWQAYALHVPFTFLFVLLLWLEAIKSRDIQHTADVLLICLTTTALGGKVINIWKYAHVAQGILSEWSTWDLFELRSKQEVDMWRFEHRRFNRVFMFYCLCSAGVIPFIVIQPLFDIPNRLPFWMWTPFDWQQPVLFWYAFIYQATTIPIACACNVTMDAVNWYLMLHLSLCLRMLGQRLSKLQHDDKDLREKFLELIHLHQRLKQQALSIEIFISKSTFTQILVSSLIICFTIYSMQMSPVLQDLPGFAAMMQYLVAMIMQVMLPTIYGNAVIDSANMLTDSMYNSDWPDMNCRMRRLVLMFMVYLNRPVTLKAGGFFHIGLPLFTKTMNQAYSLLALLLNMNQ
T2 sequence (Q9VNB5 1-486 partner): T1 sequence (Q9VNB5 1-486 partner)
Protocol: as §1, §2, §3, §4, §5

[1] = 1 μM VOC, 50 μM VUAA1 = 1, read-out: OR49b Average response (VUAA1-normalized)
[2] = 10 μM VOC, 50 μM VUAA1 = 1, read-out: OR49b Average response (VUAA1-normalized)
[3] = 100 μM VOC, 50 μM VUAA1 = 1, read-out: OR49b Average response (VUAA1-normalized)
[4] = VOC concentration 1 μM, read-out: OR49b response (VUAA1-normalized response)
[5] = VOC concentration 10 μM, read-out: OR49b response (VUAA1-normalized response)
[6] = VOC concentration 100 μM, read-out: OR49b response (VUAA1-normalized response)
[7] = concentration 1, normalized fluorescence change, values below 0.05 threshold given as 0
[8] = concentration 10, normalized fluorescence change, values below 0.05 threshold given as 0
[9] = concentration 100, normalized fluorescence change, values below 0.05 threshold given as 0
[10] = ligand concentration 1 (unit not given), 0.05 threshold, values below shown as 0
[11] = ligand concentration 10 (unit not given), 0.05 threshold, values below shown as 0
[12] = ligand concentration 100 (unit not given), 0.05 threshold, values below shown as 0
[13] = ligand concentration 1 (unit not given), threshold 0.05, below shown as 0
[14] = ligand concentration 10 (unit not given), threshold 0.05, below shown as 0
[15] = ligand concentration 100 (unit not given), threshold 0.05, below shown as 0

Structure (SMILES)	activation at 1 µM (Drosophila OR49b; [1]) [%]	activation at 10 µM (Drosophila OR49b; [2]) [%]	activation at 100 µM (Drosophila OR49b; [3]) [%]	activation at 1 µM (Drosophila OR49b; [4]) [%]	activation at 10 µM (Drosophila OR49b; [5]) [%]	activation at 100 µM (Drosophila OR49b; [6]) [%]	Average response (Drosophila OR49b; odorant cc. 1 µM)	Average response (Drosophila OR49b; odorant cc. 10 µM)	Average response (Drosophila OR49b; odorant cc. 100 µM)	activation at 1 µM (Drosophila OR71a) [%]	activation at 10 µM (Drosophila OR71a) [%]	Average response (Drosophila OR71a; cc. 1 µM)	Average response (Drosophila OR71a; cc. 10 µM)	Average response (Drosophila OR71a; cc. 100 µM)	OR49b response (VUAA1-normalized) at 1 μM (Drosophila OR49b; VOC concentration 1 μM)	OR49b response (VUAA1-normalized) at 10 μM (Drosophila OR49b; VOC concentration 10 μM)	OR49b response (VUAA1-normalized) at 100 μM (Drosophila OR49b; VOC concentration 100 μM)	OR71a response (VUAA1-normalized) at 1 μM (Drosophila OR71a; VOC concentration 1 μM)	OR71a response (VUAA1-normalized) at 10 μM (Drosophila OR71a; VOC concentration 10 μM)	OR71a response (VUAA1-normalized) at 100 μM (Drosophila OR71a; VOC concentration 100 μM)	further results
Cc1ccc(O)cc1 [4-methylphenol]	3	11	44	0	11	44	0.0329	0.11	0.44	0	0	0.00	0.00	0.00							activation at 100 µM (Drosophila OR71a): 0%; DF norm AVERAGE OR71a (Drosophila OR71a; [7]): 0; DF norm AVERAGE OR71a (Drosophila OR71a; [8]): 0; DF norm AVERAGE OR71a (Drosophila OR71a; [9]): 0
CCCCCCCCCCC [undecane]							0.00	0.00	0.0367			0.00	0.00	0.00847	0.00	0.00	0.00	0.00	0.00	0.00	DF norm AVERAGE OR49b (Drosophila OR49b; [10]): 0; DF norm AVERAGE OR49b (Drosophila OR49b; [11]): 0; DF norm AVERAGE OR49b (Drosophila OR49b; [12]): 0; DF norm AVERAGE OR71a (Drosophila OR71a; [10]): 0; DF norm AVERAGE OR71a (Drosophila OR71a; [11]): 0; DF norm AVERAGE OR71a (Drosophila OR71a; [12]): 0
COC(=O)c1ccccc1O [methyl salicylate]	3	0	12				0.0269	0.00333	0.12			0.00	0.0108	0.12	0.00	0.00	0.12	0.00	0.00	0.12	DF norm AVERAGE OR49b (Drosophila OR49b; [13]): 0; DF norm AVERAGE OR49b (Drosophila OR49b; [14]): 0; DF norm AVERAGE OR49b (Drosophila OR49b; [15]): 0.1238; OR71a Average response (VUAA1-normalized) (Drosophila OR71a; 1 μM VOC): 0.00; OR71a Average response (VUAA1-normalized) (Drosophila OR71a; 10 μM VOC): 0.01; OR71a Average response (VUAA1-normalized) (Drosophila OR71a; 100 μM VOC): 0.12; DF norm AVERAGE OR71a (Drosophila OR71a; [13]): 0; DF norm AVERAGE OR71a (Drosophila OR71a; [14]): 0; DF norm AVERAGE OR71a (Drosophila OR71a; [15]): 0.1155
CC/C=C\CCO [E-3-hexenol]																					OR49b response (VUAA1-normalized response) (Drosophila OR49b; VOC concentration 1 μM): 0.00; OR49b response (VUAA1-normalized response) (Drosophila OR49b; VOC concentration 10 μM): 0.00; OR49b response (VUAA1-normalized response) (Drosophila OR49b; VOC concentration 100 μM): 0.08; OR71a response (VUAA1-normalized response) (Drosophila OR71a; VOC concentration 1 μM): 0.00; OR71a response (VUAA1-normalized response) (Drosophila OR71a; VOC concentration 10 μM): 0.00; OR71a response (VUAA1-normalized response) (Drosophila OR71a; VOC concentration 100 μM): 0.00
Cc1ccc(C(C)C)cc1 [p-cymene]							0.00	0.00	0.00			0.00	0.023	0.00	0.00	0.00	0.00	0.00	0.00	0.00	DF norm AVERAGE OR49b (Drosophila OR49b; [13]): 0; DF norm AVERAGE OR49b (Drosophila OR49b; [14]): 0; DF norm AVERAGE OR49b (Drosophila OR49b; [15]): 0; DF norm AVERAGE OR71a (Drosophila OR71a; [13]): 0; DF norm AVERAGE OR71a (Drosophila OR71a; [14]): 0; DF norm AVERAGE OR71a (Drosophila OR71a; [15]): 0
CCCC(O)CC (stereo not drawn) [3-hexanol]				23	20	8	0.23	0.20	0.08	0	6	0.00	0.06	0.0155							activation at 100 µM (Drosophila OR71a): 0%; DF norm AVERAGE OR71a (Drosophila OR71a; [7]): 0; DF norm AVERAGE OR71a (Drosophila OR71a; [8]): 0.06016; DF norm AVERAGE OR71a (Drosophila OR71a; [9]): 0

Reference: paper PMC10709440, “High-throughput ligand profile characterization in novel cell lines expressing seven heterologous insect olfactory receptors for the detection of volatile plant biomarkers” (Scientific Reports, 2023)
